Among the data in patent US20080255206A1, “Rxr Agonists and Antagonists, Alone or in Combination with Ppar Ligands, in the Treatment of Metabolic and Cardiovascular Diseases” (priority 2005, published 2008) are IC50 and EC50 values, retold here.

One may read the IC50 as the concentration needed to halve the response being measured. In general, EC50 refers to the concentration that produces a half-maximal response.

Experiment [1] concerns the target T1, RXRα (Homo sapiens, UniProt P19793).
T1 sequence (P19793 1-462): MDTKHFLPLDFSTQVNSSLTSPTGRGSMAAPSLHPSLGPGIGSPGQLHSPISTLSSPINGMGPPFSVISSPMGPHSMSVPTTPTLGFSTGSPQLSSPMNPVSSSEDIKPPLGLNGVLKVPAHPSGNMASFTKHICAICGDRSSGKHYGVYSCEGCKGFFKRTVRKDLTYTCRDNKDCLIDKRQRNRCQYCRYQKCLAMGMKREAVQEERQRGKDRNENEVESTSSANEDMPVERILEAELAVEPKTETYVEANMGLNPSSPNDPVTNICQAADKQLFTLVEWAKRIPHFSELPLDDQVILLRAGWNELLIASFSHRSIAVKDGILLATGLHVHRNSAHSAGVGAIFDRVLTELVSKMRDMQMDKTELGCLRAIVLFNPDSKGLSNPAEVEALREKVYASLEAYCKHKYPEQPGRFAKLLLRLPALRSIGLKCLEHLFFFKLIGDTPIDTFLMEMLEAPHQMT
Briefly: Retinoid binding assay, RXRα. Set-up: made in house; host or cells: E. coli. The conditions noted are these: [3H] 9-cis retinoic acid 20 nM; read-out: Binding Affinity IC50 RXR α. From the text: (§1) The DEF domains of RAR's and the full length RXR's, expressed in E.coli, are used to measure competitive retinoid binding. […] 9-cis retinoic acid (for RXR's), respectively. […] Separation of bound from free radioactivity is achieved by charcoal/dextran (RAR's) or by desalting columns (RXR's). […] Retinoid Activation Assays

A further experiment addresses T2, PPARγ/RXRα Heterodimer (Homo sapiens, UniProt P19793).
T2 construct: co-transfected with plasmids expressing the full length RXR heteropartner receptor; expressed in transfected cells
T2 sequence (P19793 1-462): T1 sequence (P19793 1-462)
T2 sequence (P37231 1-505 partner): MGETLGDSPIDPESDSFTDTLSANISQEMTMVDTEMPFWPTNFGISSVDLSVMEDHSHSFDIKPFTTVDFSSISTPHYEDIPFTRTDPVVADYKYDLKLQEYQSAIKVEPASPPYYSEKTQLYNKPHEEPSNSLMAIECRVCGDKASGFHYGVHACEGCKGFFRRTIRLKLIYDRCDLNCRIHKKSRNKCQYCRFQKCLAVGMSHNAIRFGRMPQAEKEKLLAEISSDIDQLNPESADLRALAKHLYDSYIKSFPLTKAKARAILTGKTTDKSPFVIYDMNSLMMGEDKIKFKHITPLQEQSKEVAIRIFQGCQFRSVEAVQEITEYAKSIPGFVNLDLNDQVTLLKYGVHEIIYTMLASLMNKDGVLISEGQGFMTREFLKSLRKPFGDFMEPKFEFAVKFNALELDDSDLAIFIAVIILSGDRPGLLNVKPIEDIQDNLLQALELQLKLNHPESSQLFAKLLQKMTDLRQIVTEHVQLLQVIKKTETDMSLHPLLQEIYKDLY
The experiment can be described thus: PPARγ/RXRα heterodimer activation (transactivation) assay. The format is cell-based. The source says:
Nuclear hormone receptor (NHR) ligand dependent transcriptional transactivation assay.
Heterodimer reporter assays are potentially more important selection criteria for synthetic agonistic NHR ligands as they embody a more natural situation. Basically plasmids expressing the recombinant full length NHR are co-transfected with plasmids expressing the full length RXR heteropartner receptor and a reporter plasmid containing several copies of the natural responsive elements for the respective NHR driving the luciferase reporter gene.

Another experiment deals with T3, RARγ (Homo sapiens, UniProt P13631).
T3 construct: The DEF domains of RAR's and the full length RXR's, expressed in E.coli; made in house; host or cells: E. coli
T3 sequence (P13631 185-419 limits assumed): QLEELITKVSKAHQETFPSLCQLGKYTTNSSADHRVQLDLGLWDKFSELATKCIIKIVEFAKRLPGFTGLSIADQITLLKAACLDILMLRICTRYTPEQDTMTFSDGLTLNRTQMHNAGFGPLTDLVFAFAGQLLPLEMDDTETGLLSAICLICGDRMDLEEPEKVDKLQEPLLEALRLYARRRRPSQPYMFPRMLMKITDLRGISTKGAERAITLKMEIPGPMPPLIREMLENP
The experiment can be described thus: Retinoid binding assay, RARγ. The conditions noted are these: read-out: Binding Affinity IC50 RAR γ.
Description: as §1

Another experiment addresses T4, RXRγ (Homo sapiens, UniProt P48443).
T4 sequence (P48443 1-463): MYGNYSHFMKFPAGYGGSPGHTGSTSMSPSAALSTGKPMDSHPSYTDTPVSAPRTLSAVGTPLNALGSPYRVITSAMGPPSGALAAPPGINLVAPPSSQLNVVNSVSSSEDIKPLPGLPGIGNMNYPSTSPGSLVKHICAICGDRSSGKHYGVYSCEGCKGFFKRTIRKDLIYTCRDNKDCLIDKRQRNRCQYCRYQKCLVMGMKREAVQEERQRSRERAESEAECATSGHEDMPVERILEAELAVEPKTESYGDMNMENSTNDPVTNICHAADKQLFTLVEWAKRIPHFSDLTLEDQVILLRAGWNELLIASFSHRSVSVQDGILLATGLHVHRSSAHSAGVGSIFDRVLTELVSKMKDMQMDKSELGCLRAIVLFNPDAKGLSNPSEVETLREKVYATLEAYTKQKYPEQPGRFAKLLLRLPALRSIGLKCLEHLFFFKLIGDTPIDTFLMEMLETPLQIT
Briefly: Retinoid binding assay, RXRγ. Set-up: made in house; host or cells: E. coli. The conditions noted are these: [3H] 9-cis retinoic acid 20 nM; read-out: Binding Affinity IC50 RXR γ.
Description: as §1

Experiment [2] has as its target T1, RXRα. Briefly: Retinoid activation assay, RXRα (Schneider SL-3 cells, luciferase reporter). The format is cell-based. The conditions noted are these: read-out: Activation EC50 RXR α. On the procedure:
Full length RXR cDNA is used for transfection. As reporter system, the luciferase gene is used in a construct with three copies of a RXR response element from rat CRBP gene, (formerly RARE from betaRAR gene), fused to alcoholdehydrogenase gene promoter in the plasmid pGL2-basic. Schneider SL-3 cells from Drosophila are transiently transfected 3-4 h before the experiment by the Ca-phosphate-DNA coprecipitation method. […] At the end of the incubation, the cell supernatants are assayed for luciferase activity. Results are given as EC50 (nM), the concentration leading to half-maximal activation.

The target in a further experiment is T5, RARβ (Homo sapiens, UniProt P10826).
T5 sequence (P10826 183-417 limits assumed): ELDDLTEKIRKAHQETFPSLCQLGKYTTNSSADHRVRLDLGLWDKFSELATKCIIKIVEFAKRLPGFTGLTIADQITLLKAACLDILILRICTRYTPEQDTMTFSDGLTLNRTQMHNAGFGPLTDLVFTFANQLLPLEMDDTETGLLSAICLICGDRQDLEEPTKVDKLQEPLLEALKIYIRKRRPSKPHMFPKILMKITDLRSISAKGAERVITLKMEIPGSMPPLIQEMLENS
Briefly: Retinoid binding assay, RARβ. Also noted: The DEF domains of RAR's and the full length RXR's, expressed in E.coli; made in house; host or cells: E. coli. The conditions noted are these: read-out: Binding Affinity IC50 RAR β.
Description: as §1

Regarding `CC1=C(/C=C/C2=C(/C=C/C(C)=C/C(=O)O)CCCCC2)C(C)(C)CCC1` [Compound 1, (2E,4E)-3-methyl-5-[2-[(E)-2-(2,6,6-trimethyl-1-cyclohexen-1-yl)ethenyl]-1-cyclohepten-1-yl]-2,4-pentadienoic acid], the IC50 was 110 nM at RXRα [1], over 10 µM on RARγ, 150 nM on RXRγ and over 10 µM at RARβ. In addition, the EC50 at PPARγ/RXRα Heterodimer stood at 70 nM; at RXRα [2], 1.4 nM.
In the case of `CC(/C=C/C1=C(c2ccc3c(c2)C(C)(C)CCC3(C)C)CCCC1)=C\C(=O)O` [Compound 6, (2E,4E)-3-Methyl-5-[2-(5,5,8,8-tetramethyl-5,6,7,8-tetrahydro-naphthalen-2-yl)-cyclohex-1-enyl]-penta-2,4-dienoic acid], the IC50 is 330 nM on RXRα [1], over 10 µM at RARγ, 240 nM on RXRγ and over 10 µM at RARβ. In addition, the EC50 on RXRα [2] is 19 nM.
For `CCCCOc1c(\C(C)=C/C=C/C(C)=C/C(=O)O)cc(C(C)(C)C)cc1C(C)(C)C` [Compound 15, (2E,4E,6Z)-7-[2-butoxy-3,5-bis(1,1-dimethylethyl)phenyl]-3-methyl-2,4,6-octatrienoic acid], the IC50 on RXRα [1] is 30 nM; at RARγ, 2.7 µM; on RXRγ it was 47 nM; at RARβ it was over 10 µM. The EC50 at PPARγ/RXRα Heterodimer was over 10000 nM; at RXRα [2] it was at least 10000 nM.
As to `C/C(=C/C=C/C(C)=C/C(=O)O)c1cc2c(cc1C)C(C)(C)CCCC2` [Compound 13, (2E,4E,6Z)-3-Methyl-7-(3,5,5,-trimethyl-6,7,8,9-tetrahydro-5H-benzocyclohepten-2-yl)-octa-2,4,6-trienoic acid], the IC50 on RXRα [1] is 184 nM; on RARγ, 5.3 µM; at RXRγ, 147 nM. Besides, the EC50 is 23 nM on PPARγ/RXRα Heterodimer and 1.5 nM at RXRα [2].
Turning to `CC(/C=C/c1ccccc1-c1ccc2c(c1)C(C)(C)CCC2(C)C)=C\C(=O)O` [Compound 7, (2E,4E)-3-methyl-5-[2-(5,5,8,8-tetramethyl-5,6,7,8-tetrahydro-naphthalen-2-yl)-phenyl]-penta-2,4-dienoic acid], the IC50 on RXRα [1] is 780 nM; on RARγ, 6.3 µM; at RXRγ, 970 nM; on RARβ it was over 10 µM. Moreover, at RXRα [2], the EC50 is 6 nM.
Turning to `CC(/C=C/C1=C(c2ccc3c(c2)C(C)(C)CCC3(C)C)CCC1)=C\C(=O)O` [Compound 12, (2E,4E)-3-Methyl-5-[2-(5,5,8,8-tetramethyl-5,6,7,8-tetrahydro-naphthalen-2-yl)-cyclopent-1-enyl]-penta-2,4-dienoic acid], the IC50 was 80 nM on RXRα [1], 6.6 µM on RARγ, 120 nM at RXRγ and 2.5 µM on RARβ. Also, the EC50 is 7.7 nM on PPARγ/RXRα Heterodimer and 9 nM at RXRα [2].
For `CC1=C(/C=C/C2=C(/C=C/C(C)=C/C(=O)O)CCC2)C(C)(C)CCC1` [Compound 14, (2E,4E)-3-Methyl-5-[2-[(E)-2-(2,6,6-trimethyl-1-cyclohexen-1-yl)ethenyl]-1-cyclopenten-1-yl]-2,4-pentadienoic acid], the values for the IC50 on RXRα [1] and at RXRγ were 110 nM and 140 nM, respectively. In addition, the EC50 at PPARγ/RXRα Heterodimer worked out at 7 nM; at RXRα [2], 6 nM.
In the case of `CCOc1c([C@@H]2C[C@@H]2/C=C/C(C)=C/C(=O)O)cc(C(C)(C)C)cc1C(C)(C)C` (racemic) [Compound 17, (2E,4E)-(1RS,2RS)-5-[2-(3,5-Di-tert-butyl-2-ethoxy-phenyl)-cyclopropyl]-3-methyl-penta-2,4-dienoic acid], the IC50 on RXRα [1] was 49 nM; at RARγ, over 10 µM; at RXRγ it was 69 nM; on RARβ, over 10 µM. Besides, the figures for the EC50 on PPARγ/RXRα Heterodimer and at RXRα [2] were over 10000 nM and at least 10000 nM, respectively.
Take `CCC1(CC)CCC(C)(C)c2cc(\C(C)=C/C=C/C(C)=C/C(=O)O)ccc21` [Compound 24, (2E,4E,6Z)-7-(5,5-Diethyl-8,8-dimethyl-5,6,7,8-tetrahydro-naphthalen-2-yl)-3-methyl-octa-2,4,6-trienoic acid]: the IC50 on RXRα [1] worked out at 680 nM; at RARγ, 0.033 µM; on RXRγ it was 660 nM; at RARβ, 0.02 µM. For the same molecule, the values for the EC50 on PPARγ/RXRα Heterodimer and on RXRα [2] were 3.5 nM and at least 10000 nM, respectively.
Take `CC(/C=C/c1sccc1-c1ccc2c(c1)C(C)(C)CCC2(C)C)=C\C(=O)O` [Compound 9]: the IC50 was determined as 230 nM on RXRα [1], 3.6 µM on RARγ, 230 nM on RXRγ and 3.8 µM on RARβ. In addition, the EC50 on PPARγ/RXRα Heterodimer stood at 38 nM; on RXRα [2] it was 2.5 nM.
Consider `CC1=C(C#CC2=C(/C=C/C(C)=C/C(=O)O)CCCCC2)C(C)(C)CCC1` [Compound 18], for which the IC50 was 95 nM at RXRα [1], over 10 µM on RARγ, 65 nM at RXRγ and over 10 µM at RARβ. Also, the EC50 on PPARγ/RXRα Heterodimer is over 10000 nM; on RXRα [2] it was at least 10000 nM.
As to `CC(/C=C/[C@@H]1C[C@@H]1c1ccc2c(c1)C(C)(C)CCC2(C)C)=C\C(=O)O` (racemic) [Compound 4, (2E,4E)-3-methyl-5-[(1RS,2RS)-2-(5,5,8,8-tetramethyl-5,6,7,8-tetrahydro-naphthalen-2-yl)-cyclopropyl]-penta-2,4-dienoic acid], the concentration for half-maximal inhibition (IC50) on RXRα [1] is 84 nM; on RARγ it was 7.5 µM; on RXRγ, 127 nM; at RARβ it was over 10 µM. Further, on RXRα [2], the EC50 came out at 3.5 nM.
